# From US20220071932A1, “Compositions and Methods Against Stress-Induced Affective Disorders and Their Associated Symptoms” (The Trustees of Columbia University in the City of New York, priority 2019, published 2022)
# System: 129S6/SvEv mice
# Assay: Contextual fear conditioning (CFC), 3-shock; freezing
# Assay type: in vivo
# Conditions: for p, Fisher's LSD Saline vs. drug, CFC Re-exposure Freezing Min 1 (%) / p, Fisher's LSD Saline vs. drug, CFC Re-exposure Freezing Min 2 (%) / p, Fisher's LSD Saline vs. drug, CFC Re-exposure Freezing Min 3 (%) / p, Fisher's LSD Saline vs. drug, CFC Re-exposure Freezing Min 4 (%) / p, Fisher's LSD Saline vs. drug, CFC Re-exposure Freezing Min 5 (%) / p, Fisher's LSD Saline vs. drug, CFC Re-exposure Freezing (%): drug 1 week before stress; for p, Fisher's PLSD Saline vs. drug, CFC Re-exposure Freezing Min 1 (%) / p, Fisher's PLSD Saline vs. drug, CFC Re-exposure Freezing Min 2 (%) / p, Fisher's PLSD Saline vs. drug, CFC Re-exposure Freezing Min 3 (%) / p, Fisher's PLSD Saline vs. drug, CFC Re-exposure Freezing Min 4 (%) / p, Fisher's PLSD Saline vs. drug, CFC Re-exposure Freezing Min 5 (%) / p, Fisher's PLSD Saline vs. drug, CFC Re-exposure Freezing (%): drug 5 minutes after stress, FIG. 2C
# Procedure: A 3-shock CFC paradigm was administered as previously described (45, 46). CFC was conducted in chambers obtained from Med Associates (St. Albans, Vt.), with internal dimensions of approximately 20 cm wide×16 cm deep×20.5 cm high. The chambers had metal walls on each side, clear plastic front and back walls and ceilings, and stainless-steel bars on the floor. A house light (CM1820 bulb, 28v, 100 mA) mounted directly above the chamber provided illumination. Each chamber was located inside a larger, insulated, plastic cabinet that provided protection from outside light and noise. Each cabinet contained a ventilation fan that was operated during the sessions. A paper towel dabbed with lemon solution was placed underneath the chamber floor. Mice were held outside the experimental room in their home cages prior to testing and transported to the conditioning apparatus individually in standard mouse cages Chambers were cleaned with 70% EtOH between each set of mice. Mice were placed into the conditioning chamber and received shocks at 180 s, 240 s, and 300 s (2 s duration, 0.75 mA). Fifteen seconds after the last shock, mice were removed from the chamber. Overall, the training session lasted 317 s. […] All sessions were scored for freezing using FreezeFrame4.
# [1] = 5 min prior to CFC, (R,S)-ketamine 30 mg/kg, FENM 20 mg/kg, vs saline
# [2] = (R,S)-ketamine (30 mg/kg) vs. FENM (20 mg/kg), FIG. 8D
# [3] = (R,S)-ketamine (30 mg/kg) vs. FENM (20 mg/kg), FIG. 8F
smiles,measurement,setting,value
"NC12CC3CC(C1)CC(CCF)(C3)C2 [FENM, 1-amino-3-fluoroethyl-adamantane]","p, Fisher's LSD Saline vs. drug, CFC Re-exposure Freezing Min 1 (%)","10 mg/kg, FIG. 1C",0.4040
same,"p, Fisher's LSD Saline vs. drug, CFC Re-exposure Freezing Min 2 (%)","10 mg/kg, FIG. 1C",0.0961
same,"p, Fisher's LSD Saline vs. drug, CFC Re-exposure Freezing Min 3 (%)","10 mg/kg, FIG. 1C",0.5544
same,"p, Fisher's LSD Saline vs. drug, CFC Re-exposure Freezing Min 4 (%)","10 mg/kg, FIG. 1C",0.0419
same,"p, Fisher's LSD Saline vs. drug, CFC Re-exposure Freezing Min 5 (%)","10 mg/kg, FIG. 1C",0.3855
same,"p, Fisher's LSD Saline vs. drug, CFC Re-exposure Freezing (%)","10 mg/kg, after ANOVA, FIG. 1D",0.1313
same,"p, Fisher's LSD Saline vs. drug, CFC Re-exposure Freezing (%)","10 mg/kg, after RMANOVA, FIG. 1C",0.1313
same,"p, Fisher's PLSD Saline vs. drug, CFC Re-exposure Freezing Min 1 (%)",10 mg/kg,0.1019
same,"p, Fisher's PLSD Saline vs. drug, CFC Re-exposure Freezing Min 2 (%)",10 mg/kg,0.0359
same,"p, Fisher's PLSD Saline vs. drug, CFC Re-exposure Freezing Min 3 (%)",10 mg/kg,0.0300
same,"p, Fisher's PLSD Saline vs. drug, CFC Re-exposure Freezing Min 4 (%)",10 mg/kg,0.1916
same,"p, Fisher's PLSD Saline vs. drug, CFC Re-exposure Freezing Min 5 (%)",10 mg/kg,0.6909
same,"p, Fisher's PLSD Saline vs. drug, CFC Re-exposure Freezing (%)","10 mg/kg, after RMANOVA",0.0570
same,"p, Fisher's LSD Saline vs. drug, CFC Re-exposure Freezing Min 1 (%)","20 mg/kg, FIG. 1C",0.2929
same,"p, Fisher's LSD Saline vs. drug, CFC Re-exposure Freezing Min 2 (%)","20 mg/kg, FIG. 1C",0.0225
same,"p, Fisher's LSD Saline vs. drug, CFC Re-exposure Freezing Min 3 (%)","20 mg/kg, FIG. 1C",0.0834
same,"p, Fisher's LSD Saline vs. drug, CFC Re-exposure Freezing Min 4 (%)","20 mg/kg, FIG. 1C",0.0743
same,"p, Fisher's LSD Saline vs. drug, CFC Re-exposure Freezing Min 5 (%)","20 mg/kg, FIG. 1C",0.0027
same,"p, Fisher's LSD Saline vs. drug, CFC Re-exposure Freezing (%)","20 mg/kg, after ANOVA, FIG. 1D",0.015
same,"p, Fisher's LSD Saline vs. drug, CFC Re-exposure Freezing (%)","20 mg/kg, after RMANOVA, FIG. 1C",0.0150
same,"p, Fisher's LSD Saline vs. drug, CFC Re-exposure Freezing Min 1 (%)","30 mg/kg, FIG. 1C",0.0328
same,"p, Fisher's LSD Saline vs. drug, CFC Re-exposure Freezing Min 2 (%)","30 mg/kg, FIG. 1C",0.0080
same,"p, Fisher's LSD Saline vs. drug, CFC Re-exposure Freezing Min 3 (%)","30 mg/kg, FIG. 1C",0.0038
same,"p, Fisher's LSD Saline vs. drug, CFC Re-exposure Freezing Min 4 (%)","30 mg/kg, FIG. 1C",0.0005
same,"p, Fisher's LSD Saline vs. drug, CFC Re-exposure Freezing Min 5 (%)","30 mg/kg, FIG. 1C",0.0807
same,"p, Fisher's LSD Saline vs. drug, CFC Re-exposure Freezing (%)","30 mg/kg, after ANOVA, FIG. 1D",0.0018
same,"p, Fisher's LSD Saline vs. drug, CFC Re-exposure Freezing (%)","30 mg/kg, after RMANOVA, FIG. 1C",0.0018
same,"p, Fisher's PLSD Saline vs. drug, CFC Re-exposure Freezing Min 1 (%)",30 mg/kg,0.8647
same,"p, Fisher's PLSD Saline vs. drug, CFC Re-exposure Freezing Min 2 (%)",30 mg/kg,0.4119
same,"p, Fisher's PLSD Saline vs. drug, CFC Re-exposure Freezing Min 3 (%)",30 mg/kg,0.3540
same,"p, Fisher's PLSD Saline vs. drug, CFC Re-exposure Freezing Min 4 (%)",30 mg/kg,0.0503
same,"p, Fisher's PLSD Saline vs. drug, CFC Re-exposure Freezing Min 5 (%)",30 mg/kg,0.3078
same,"p, Fisher's PLSD Saline vs. drug, CFC Re-exposure Freezing (%)","30 mg/kg, after RMANOVA",0.2420
same,fear expression during CFC re-exposure,"1 week prior to CFC, (R,S)-ketamine 30 mg/kg, FENM 20 and 30 mg/kg, vs saline",decreased fear expression
same,fear expression during re-exposure 2,"5 min after context re-exposure 1 (24 h before re-exposure 2), (R,S)-ketamine 30 mg/kg, FENM 20 mg/kg, vs saline",significantly decreased fear expression
same,fear expression during CFC re-exposure 1,[1],but not FENM significantly decreased
same,fear expression during CFC re-exposure 2,[1],significantly increased fear expression
same,freezing during CFC training,[1],"but not FENM, increased freezing"
same,"CFC Training, Average Freezing, p (Fisher's LSD)","(R,S)-ketamine (30 mg/kg) vs. FENM (20 mg/kg), FIG. 8C",0.0029
same,"CFC Re-exposure 1, Freezing Min 1 (%), p (Fisher's LSD)",[2],<0.0001
same,"CFC Re-exposure 1, Freezing Min 2 (%), p (Fisher's LSD)",[2],<0.0001
same,"CFC Re-exposure 1, Freezing Min 3 (%), p (Fisher's LSD)",[2],<0.0001
same,"CFC Re-exposure 1, Freezing Min 4 (%), p (Fisher's LSD)",[2],<0.0001
same,"CFC Re-exposure 1, Freezing Min 5 (%), p (Fisher's LSD)",[2],<0.0001
same,"CFC Re-exposure 2, Freezing Min 1 (%), p (Fisher's LSD)",[3],0.1684
same,"CFC Re-exposure 2, Freezing Min 2 (%), p (Fisher's LSD)",[3],<0.0001
same,"CFC Re-exposure 2, Freezing Min 3 (%), p (Fisher's LSD)",[3],<0.0001
same,"CFC Re-exposure 2, Freezing Min 4 (%), p (Fisher's LSD)",[3],<0.0001
same,"CFC Re-exposure 2, Freezing Min 5 (%), p (Fisher's LSD)",[3],<0.0001
same,"CFC Re-exposure 1, Freezing (%), p (Fisher's LSD)","(R,S)-ketamine (30 mg/kg) vs. FENM (20 mg/kg), after ANOVA, FIG. 8E",<0.0001
same,"CFC Re-exposure 2, Freezing (%), p (Fisher's LSD)","(R,S)-ketamine (30 mg/kg) vs. FENM (20 mg/kg), after ANOVA, FIG. 8G",<0.0001
same,"CFC Re-exposure 1, Freezing (%), p (Fisher's LSD)","(R,S)-ketamine (30 mg/kg) vs. FENM (20 mg/kg), after RMANOVA, FIG. 8D",<0.0001
